Laboratory results taken from publication PMC7407945, “Ranacyclin-NF, a Novel Bowman–Birk Type Protease Inhibitor from the Skin Secretion of the East Asian Frog, Pelophylax nigromaculatus” (Biology, 2020).
Values after ≈ are worked out from the molar mass of the structure shown. Where two headings read alike, the source gives them in different places. Bridge positions count the residues as written; N and C are the ends. Ends that are not written are not given here. Peptide text beside a SMILES is read from it.

Legend:
MRSA = experiment: Checkerboard assay, peptide with Gentamicin; format: cell-based, Staphylococcus aureus; settings: for MIC: Staphylococcus aureus, 18 h
Protocol: Then, the microorganism cultures (1 × 10^6 cfu/mL) were inoculated into the plate wells and incubated at 37 °C for 18 h. The optical densities of the cultures were measured using an ELISA plate reader (Biotech Minneapolis, MN, USA). The lowest cumulative fractional inhibitory concentration (ΣFIC) was calculated with the following equation:(1) ΣFIC=Compound A treated in combination/Compound A, test in alone+Compound B treated in combination/Compound B, test in alone
ΣFIC ≤ 0.5 indicates synergy; 0.5 < Σ FIC ≤ 4 indicates an additive effect; and Σ FIC > 4 represents an antagonistic effect.

[1] = test system: Staphylococcus aureus (NCTC 10788); settings: doubling-dilution method, up to 512 µM
trypsin [2] = biological target: T1, trypsin (Bos taurus, UniProt P00760); experiment: Trypsin inhibition assay; format: biochemical; settings: substrate Phe-Pro-Arg-AMC
T1 construct: gene PRSS1
T1 sequence (P00760 24-246): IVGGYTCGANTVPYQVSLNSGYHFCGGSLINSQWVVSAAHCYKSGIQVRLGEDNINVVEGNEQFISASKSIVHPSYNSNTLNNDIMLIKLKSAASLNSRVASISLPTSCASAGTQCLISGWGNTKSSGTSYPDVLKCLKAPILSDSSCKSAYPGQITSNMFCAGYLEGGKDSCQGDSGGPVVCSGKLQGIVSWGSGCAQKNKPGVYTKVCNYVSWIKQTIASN
Protocol: (§1) Trypsin and chymotrypsin inhibition assays were performed as previously described. The substrate of trypsin and chymotrypsin were Phe-Pro-Arg-AMC and Succinyl-Ala-Ala-Pro-Phe-NHMec, respectively, and obtained from Bachem, Merseyside, UK. In the tryptase inhibition assay, peptide samples were first dissolved in tryptase assay buffer pH 7.6, containing 0.05 M Tris, 0.15 M NaCl and 0.2% (w/v) PEG 6000 (final volume 210 μL) to obtain different concentrations of 0.5, 1, 2 and 4 mM and then added to the wells of a black 96-well plate containing (Boc-Phe-Ser-Arg-NHMec, obtained from Bachem, Merseyside, UK) (50 μM). Before measurement, tryptase (2.5 μL from 1 mg/mL stock solution, Calbiochem, Nottingham, UK) was added to each well. The rate of hydrolysis of substrate was monitored continuously at 37 °C and 460 nm with a Fluostar Optima plate reader (BMG Labtech GmbH, Offenburg, Germany)

tryptase [3] = biological target: T2, tryptase (Homo sapiens, UniProt Q15661); experiment: Tryptase inhibition assay; format: biochemical; settings: substrate Boc-Phe-Ser-Arg-NHMec 50 μM; pH 7.6, 0.05 M Tris, 0.15 M NaCl, 0.2% PEG 6000; 37 °C; 460 nm
T2 construct: purchased Calbiochem, Nottingham, UK
T2 sequence (Q15661 31-275): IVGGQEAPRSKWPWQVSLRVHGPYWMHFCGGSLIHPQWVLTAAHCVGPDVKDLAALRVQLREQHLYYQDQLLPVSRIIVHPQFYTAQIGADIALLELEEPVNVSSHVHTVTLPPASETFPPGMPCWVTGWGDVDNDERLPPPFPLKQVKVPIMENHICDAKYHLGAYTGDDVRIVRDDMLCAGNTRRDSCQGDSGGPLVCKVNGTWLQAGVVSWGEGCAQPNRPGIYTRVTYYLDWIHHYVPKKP
Protocol: as §1

[4] = test system: Candida albicans (NCPF 1467); settings: doubling-dilution method, up to 512 µM
[5] = test system: Escherichia coli (NCTC 10418); settings: doubling-dilution method, up to 512 µM
[6] = test system: Enterococcus faecalis (NCTC 12697); settings: doubling-dilution method, up to 512 µM
[7] = test system: Klebsiella pneumoniae (ATCC43816); settings: doubling-dilution method, up to 512 µM
[8] = test system: Pseudomonas aeruginosa (ATTC 27853); settings: doubling-dilution method, up to 512 µM
[9] = test system: Methicillin-resistant Staphylococcus aureus (MRSA) (NCTC 12493); settings: doubling-dilution method, up to 512 µM
chymotrypsin [10] = biological target: T3, chymotrypsin (Bos taurus, UniProt P00766); experiment: Chymotrypsin inhibition assay; format: biochemical; set-up: key: N.I.: there was no inhibitory activity; settings: substrate Succinyl-Ala-Ala-Pro-Phe-NHMec
Protocol: as §1

[11] = test system: HaCaT cells (human keratinocyte cell line); settings: MTT, 24 h, 10^−9 to 10^−4 M; result in words
Protocol: (§2) Cells (5 × 10^3 cells/mL) were seeded into 96-well plates with FBS-containing fresh medium for 24 h. After that, cells were treated with corresponding serum-free culture medium for 12 h. […] After exposure for 6 h, all liquid was removed and 100 µL of DMSO was added. Finally, the absorbance of samples at 570 nm was determined using an ELISA plate reader (Biotech, Minneapolis, MN, USA).

[12] = test system: HMEC-1 cells (human microvascular endothelial cell line); settings: MTT, 24 h, 10^−9 to 10^−4 M; result in words
Protocol: as §2

human normal cell lines = settings: MTT, 24 h, highest concentration tested 100 µM; result in words
Protocol: as §2

chymotrypsin [13] = biological target: T3, chymotrypsin; set-up: method as in 2 sources, ref 24 = [24]; PMID 28356487; doi:10.1042/BSR20160593; 24. Wu Y. Long Q. Xu Y. Guo S. Chen T. Wang L. Zhou M. Zhang Y. Shaw C. Walker B. A structural and functional analogue of a Bowman–Birk-type protease inhibitor from Odorrana schmackeri Biosci. Rep. 20 ||| ref 32 = [32]; PMID 31337113; doi:10.3390/biom9070280; 32. Miao Y. Chen G. Xi X. Ma C. Wang L. Burrows J. Duan J. Zhou M. Chen T. Discovery and Rational Design of a Novel Bowman-Birk Related Protease Inhibitor Biomolecules 2019 9 280 10.3390/biom9070280 3; key: N.I.: there was no inhibitory activity; settings: cited from earlier work
tryptase [14] = biological target: T2, tryptase; settings: cited from earlier work; for tryptase inhibitory activity: result in words
From the text: Therefore, the emergence of a novel tryptase inhibitor would be an asset in the treatment of some clinical diseases. […] Some publications believe that protease inhibitors cannot work effectively when it comes t ...

trypsin [15] = biological target: T1, trypsin; settings: cited from earlier work
From the text: Amino acid residues at P5′ are shaded. | column: Trypsin Inhibition Ki (nM) || In previous studies, extensive studies have been made to reveal the role played by each residue within the TIL in overall enzyme inhibitory activity. However, factors outside this conserved disulphide loop, which may affect trypsin inhibition activity, have rarely been studied. In 2012, Wang et al. discovered the peptide, HJTI, and designed one molecular variant to study the role that cationicity played in trypsin inhibitory potency. They believed that structural features, especially for amino acid residues lying outside the TIL, were crucial in modulating the effectiveness of trypsin inhibito ...

bacteria = settings: result in words; cited from earlier work
From the text: (§3) Therefore, ranacyclins firstly approach to the membrane surface through hydrophobic interaction and then, at sites where peptide concentrations reach a threshold, insert into the hydrophobic core of the membrane bilaye ...

[16] = result in words; cited from earlier work
From the text: as §3

CNC(C)C1CCC(N)C(OC2C(N)CC(N)C(OC3OCC(C)(O)C(NC)C3O)C2O)O1 (stereo not drawn) [Gentamicin]
MIC (MRSA; read-out: MIC of Gentamicin against MRSA, Gentamicin alone, 37 °C, 18 h): 2 µM
MIC (MRSA; read-out: MIC of Gentamicin against MRSA, in the presence of RNF and its analogues, 37 °C, 18 h): 1 µM

C[C@H](NC(=O)CN)C(=O)N1CCC[C@H]1C(=O)N[C@@H](CCCNC(=N)N)C(=O)NCC(=O)N[C@H]1CSSC[C@@H](C(=O)N[C@@H](Cc2ccccc2)C(=O)O)NC(=O)[C@@H]2CCCN2C(=O)[C@H](CCC(N)=O)NC(=O)[C@@H]2CCCN2C(=O)[C@@H]2CCCN2C(=O)[C@H](Cc2ccc(O)cc2)NC(=O)[C@H](CO)NC(=O)[C@H](CCCCN)NC(=O)[C@H]([C@@H](C)O)NC(=O)[C@H](Cc2c[nH]c3ccccc23)NC1=O [RNF1] (H-GAPRGCWTKSYPPQPCF-OH; disulfide 6-16)
MBC S. aureus [1]: > 512 µM
MIC S. aureus [1]: > 512 µM
Ki (trypsin [2]): 1.3 µM
Ki (tryptase [3]): 9.06 µM
MBC C. albicans [4]: > 512 µM
MIC C. albicans [4]: > 512 µM
MBC E. coli [5]: > 512 µM
MIC E. coli [5]: > 512 µM
MBC E. faecalis [6]: > 512 µM
MIC E. faecalis [6]: > 512 µM
MBC K. pneumoniae [7]: > 512 µM
MIC K. pneumoniae [7]: > 512 µM
MBC P. aeruginosa [8]: > 512 µM
MIC P. aeruginosa [8]: > 512 µM
MBC MRSA [9]: > 512 µM
MIC MRSA [9]: > 512 µM

CC(C)C[C@H](NC(=O)[C@H](C)NC(=O)CN)C(=O)N[C@@H](CCCNC(=N)N)C(=O)NCC(=O)N[C@H]1CSSC[C@@H](C(=O)N[C@@H](Cc2ccccc2)C(N)=O)NC(=O)[C@@H]2CCCN2C(=O)[C@H](CCC(N)=O)NC(=O)[C@@H]2CCCN2C(=O)[C@@H]2CCCN2C(=O)[C@H](Cc2ccc(O)cc2)NC(=O)[C@H](CO)NC(=O)[C@H](CCCCN)NC(=O)[C@H]([C@@H](C)O)NC(=O)[C@H](Cc2c[nH]c3ccccc23)NC1=O [RNF3L] (H-GALRGCWTKSYPPQPCF-NH2; disulfide 6-16; N-terminus assumed)
Ki(µM) of Chymotrypsin (chymotrypsin [10]): N.I.
effect of the combination with Gentamicin (MRSA; peptide with Gentamicin, class by ΣFIC): additive effect (0.5 < Σ FIC ≤ 4 indicates an additive effect)

C[C@H](NC(=O)CN)C(=O)N1CCC[C@H]1C(=O)N[C@@H](CCCNC(=N)N)C(=O)NCC(=O)N[C@H]1CSSC[C@@H](C(=O)N[C@@H](Cc2ccccc2)C(N)=O)NC(=O)[C@@H]2CCCN2C(=O)[C@H](CCC(N)=O)NC(=O)[C@@H]2CCCN2C(=O)[C@@H]2CCCN2C(=O)[C@H](Cc2ccc(O)cc2)NC(=O)[C@H](CO)NC(=O)[C@H](CCCCN)NC(=O)[C@H]([C@@H](C)O)NC(=O)[C@H](Cc2c[nH]c3ccccc23)NC1=O [RNF] (H-GAPRGCWTKSYPPQPCF-NH2; disulfide 6-16)
MBC S. aureus [1]: > 512 µM
MIC S. aureus [1]: 512 µM (≈ 969 µg/mL)
Ki (trypsin [2]): 0.447 µM
Ki (tryptase [3]): 6.77 µM
cytotoxicity on HaCaT [11]: negligible cytotoxicity
cytotoxicity on HMEC-1 [12]: negligible cytotoxicity
cytotoxicity (human normal cell lines): negligible direct cytotoxicity
MBC C. albicans [4]: > 512 µM
MIC C. albicans [4]: > 512 µM
MBC E. coli [5]: > 512 µM
MIC E. coli [5]: > 512 µM
MBC E. faecalis [6]: > 512 µM
MIC E. faecalis [6]: > 512 µM
MBC K. pneumoniae [7]: > 512 µM
MIC K. pneumoniae [7]: > 512 µM
MBC P. aeruginosa [8]: > 512 µM
MIC P. aeruginosa [8]: > 512 µM
MBC MRSA [9]: > 512 µM
MIC MRSA [9]: > 512 µM

AALKGCWTKSIPPKPCF-NH2 (disulfide 6-16 (inferred)) [OSTI]
Ki(µM) of Chymotrypsin (chymotrypsin [13]): N.I.
tryptase inhibitory activity (tryptase [14]): obvious tryptase inhibitory activity

AALKGCWTKSIPPKPCF-NH2 (disulfide) (disulfide 6-16; N-terminus assumed; SMILES CC[C@H](C)[C@@H]1NC(=O)[C@H](CO)NC(=O)[C@H](CCCCN)NC(=O)[C@H]([C@@H](C)O)NC(=O)[C@H](Cc2c[nH]c3ccccc23)NC(=O)[C@@H](NC(=O)CNC(=O)[C@H](CCCCN)NC(=O)[C@H](CC(C)C)NC(=O)[C@H](C)NC(=O)[C@H](C)N)CSSC[C@@H](C(=O)N[C@@H](Cc2ccccc2)C(N)=O)NC(=O)[C@@H]2CCCN2C(=O)[C@H](CCCCN)NC(=O)[C@@H]2CCCN2C(=O)[C@@H]2CCCN2C1=O) [OSTI]
Ki (tryptase [14]): 2.5 µM
Ki (trypsin [15]): 0.0003 µM

ALRGCWTKSIPPKPCP-NH2 (disulfide 5-15 (inferred)) [PPF-BBI]
Ki(µM) of Chymotrypsin (chymotrypsin [13]): N.I.
tryptase inhibitory activity (tryptase [14]): obvious tryptase inhibitory activity

ALRGCWTKSIPPKPCP-NH2 (disulfide) (disulfide 5-15; N-terminus assumed; SMILES CC[C@H](C)[C@@H]1NC(=O)[C@H](CO)NC(=O)[C@H](CCCCN)NC(=O)[C@H]([C@@H](C)O)NC(=O)[C@H](Cc2c[nH]c3ccccc23)NC(=O)[C@@H](NC(=O)CNC(=O)[C@H](CCCNC(=N)N)NC(=O)[C@H](CC(C)C)NC(=O)[C@H](C)N)CSSC[C@@H](C(=O)N2CCC[C@H]2C(N)=O)NC(=O)[C@@H]2CCCN2C(=O)[C@H](CCCCN)NC(=O)[C@@H]2CCCN2C(=O)[C@@H]2CCCN2C1=O) [PPF-BBI]
Ki (tryptase [14]): 30.7 µM
Ki (trypsin [15]): 0.17 µM

GALRGCWTKSYPPKPCK-NH2 (disulfide 6-16 (inferred)) [Ranacyclin-T]
antimicrobial activity with respect to RNF (bacteria): relatively stronger antimicrobial activity
secondary structure [16]: beta-sheet structure

GALRGCWTKSYPPKPCK-NH2 (disulfide) (disulfide 6-16) [Ranacyclin-T]
Ki (trypsin [15]): 0.116 µM

GAPKGCWTKSYPPQPCS-NH2 (disulfide) (disulfide 6-16; N-terminus assumed; SMILES C[C@H](NC(=O)CN)C(=O)N1CCC[C@H]1C(=O)N[C@@H](CCCCN)C(=O)NCC(=O)N[C@H]1CSSC[C@@H](C(=O)N[C@@H](CO)C(N)=O)NC(=O)[C@@H]2CCCN2C(=O)[C@H](CCC(N)=O)NC(=O)[C@@H]2CCCN2C(=O)[C@@H]2CCCN2C(=O)[C@H](Cc2ccc(O)cc2)NC(=O)[C@H](CO)NC(=O)[C@H](CCCCN)NC(=O)[C@H]([C@@H](C)O)NC(=O)[C@H](Cc2c[nH]c3ccccc23)NC1=O) [HJTI, Odorrana hejiangensis]
Ki (trypsin [15]): 0.388 µM
